According to publication PMC8596838, “Xylose‐Configured Cyclophellitols as Selective Inhibitors for Glucocerebrosidase” (Chembiochem, 2021):

What was measured:
GBA3 = target: T1, GBA3 (Homo sapiens, UniProt Q9H227); assay: Inhibition in intact HEK293T cells (24 h), read out by cABPP with ABP 10, GBA3; type: cell-based; conditions: for IC50: 24 h treatment, cABPP quantification, n=3; for GBA3/GBA ratio, intact cells: IC50 ratio, 24 h
T1 construct: expressed in transfected cells; host or cells: HEK293T (GBA/GBA2 KO background for the fluorogenic assay; endogenous-GBA background with GBA2 and GBA3 overexpressed for ABPP and intact-cell assays)
T1 sequence (Q9H227 1-469): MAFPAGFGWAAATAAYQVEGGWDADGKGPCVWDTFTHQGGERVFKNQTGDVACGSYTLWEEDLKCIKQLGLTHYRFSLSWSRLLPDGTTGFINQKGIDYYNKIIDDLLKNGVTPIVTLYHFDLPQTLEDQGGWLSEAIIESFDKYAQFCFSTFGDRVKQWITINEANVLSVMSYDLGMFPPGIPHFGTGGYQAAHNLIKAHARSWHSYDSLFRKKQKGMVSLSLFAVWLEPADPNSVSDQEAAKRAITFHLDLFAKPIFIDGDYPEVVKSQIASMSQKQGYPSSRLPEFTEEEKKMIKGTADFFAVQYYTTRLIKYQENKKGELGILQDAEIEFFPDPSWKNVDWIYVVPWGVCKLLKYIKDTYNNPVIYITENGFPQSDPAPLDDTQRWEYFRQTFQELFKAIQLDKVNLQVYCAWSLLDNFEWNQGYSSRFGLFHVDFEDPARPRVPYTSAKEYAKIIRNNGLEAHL
Text: (§1) We next examined the activity of 1 and 2 towards the three human β‐D‐glucosidase in intact HEK293T cells. […] It is noted that the GBA‐selectivity of both compounds is much improved in intact cells than in the in vitro system (Figure 2 and Table 1). This is especially true for compound 1, where an impressive 4‐logs of selectivity window is observed.
(§2) Figure 5 Inhibitory effect of β‐D‐xylo‐configured cyclophellitol 1 and cyclophellitol aziridine 2 on β‐glucosidases in intact HEK293T cells expressing GBA, GBA2 and GBA3. (A) Representative gel images of cABPP where cells were treated for 24 h with indicated inhibitor. Lysates were then prepared and labeled with fluorescent ABP 10. Fluorescently labeled proteins were visualized after SDS‐PAGE (1 set from n=3 replicates). (B) IC50 curves determined by cABPP labeling results. (C) Apparent IC50 values towards β‐glucosidases in intact HEK293T cells producing GBA, GBA2 and GBA3 were determined by the fluorescence quantification based on cABPP SDS‐PAGE results.
(§3) ABP labeling procedure: Glycosidases were labeled with excess fluorescent ABPs at optimum conditions. ABP labeling was performed at 37 °C for 30 min for all materials (if not otherwise stated), in a total sample volume of 20–40 μL and 0.5–1 % DMSO concentration. GBA was labeled with 200 nM ABP 9 (pH 5.2, 0.1 % (v/v) Triton‐100, 0.2 % (w/v) sodium taurocholate), or labeled together with GBA2 using 200 nM β‐D‐glucose‐configured aziridine ABP 10 at pH 5.8, or labeling together with GBA2 and GBA3 using 200 nM β‐D‐glucose‐configured aziridine ABP 10 at pH 6.0. After ABP incubation, proteins were denatured by boiling the samples with 5× Laemmli buffer (50 % (v/v) 1 M Tris‐HCl, pH 6.8, 50 % (v/v) 100 % glycerol, 10 % (w/v) DTT, 10 % (w/v) SDS, 0.01 % (w/v) bromophenol blue) for 5 min at 98 °C, and separated by electrophoresis on 10 % (w/v) SDS‐PAGE gels running continuously at 90 V. Wet slab‐gels were scanned on fluorescence using the Typhoon FLA 9500 (GE Healthcare) at λEX 473 nm and λEM≥510 nm for green fluorescent ABP 8; and at λEX 635 nm and λEM≥665 nm for ABP 6, 9 and 10. ABP‐emitted fluorescence was quantified using ImageQuant software (GE Healthcare, Chicago, IL, USA) and curve‐fitted using Prism 8.0 (GraphPad Software). After fluorescence scanning, SDS‐PAGE gels were stained for total protein with Coomassie G250 and scanned on a ChemiDoc MP imager (Bio‐Rad, Hercules, CA, USA).[25]
Assessment of inhibitor activity in cultured cells: Confluent HEK293T stably expressing human GBA and GBA2 GBA3 overexpressing were cultured in 24‐well plates in triplicates with(out) inhibitors for 24 h at 37 °C with 7 % CO2. […]

GBA = target: T2, GBA (Homo sapiens, UniProt P04062); assay: Inhibition in intact HEK293T cells (24 h), read out by cABPP with ABP 10, GBA; type: cell-based; conditions: for IC50: 24 h treatment, cABPP quantification, n=3
T2 construct: HEK293T cells that contain endogenous GBA; endogenous in cells; host or cells: HEK293T (ATCC CRL-3216) overexpressing GBA2 and GBA3
T2 sequence (P04062 40-536): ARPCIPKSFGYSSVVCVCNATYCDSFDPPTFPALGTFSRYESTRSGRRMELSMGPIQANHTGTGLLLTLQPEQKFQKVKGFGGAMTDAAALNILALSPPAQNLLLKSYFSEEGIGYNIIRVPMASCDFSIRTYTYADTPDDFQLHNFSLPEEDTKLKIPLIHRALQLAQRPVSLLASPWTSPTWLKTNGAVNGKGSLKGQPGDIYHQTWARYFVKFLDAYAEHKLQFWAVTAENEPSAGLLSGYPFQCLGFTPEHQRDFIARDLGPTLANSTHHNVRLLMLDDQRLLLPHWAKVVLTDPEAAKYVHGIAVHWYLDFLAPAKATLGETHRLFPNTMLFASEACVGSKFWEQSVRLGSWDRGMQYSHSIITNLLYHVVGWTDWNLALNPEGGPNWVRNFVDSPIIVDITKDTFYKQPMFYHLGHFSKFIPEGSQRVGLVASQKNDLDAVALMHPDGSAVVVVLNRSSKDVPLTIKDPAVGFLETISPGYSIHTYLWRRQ
Text: as §1, §2
as §3, with “ABP labeling was performed at 37 °C for 30 min for all materials (if not otherwise stated), in a total sample volume of 20–40 μL and 0.5–1 % DMSO concentration. GBA was labeled with 200 nM ABP 9 (pH 5.2, 0.1 % (v/v) Triton‐100, 0.2 % (w/v) sodium taurocholate), or labeled together with GBA2 using 200 nM β‐D‐glucose‐configured aziridine ABP 10 at pH 5.8, or labeling together with GBA2 and GBA3 using 200 nM β‐D‐glucose‐configured aziridine ABP 10 at pH 6.0.” left out, “USA).[25] […]” for “USA).[25]”

selectivity window for GBA in intact cells (GBA; 24 h)	Compound	IC50 (GBA3)	GBA3/GBA ratio, intact cells (GBA3)	IC50 (GBA)
4 logs	O[C@@H]1[C@@H](O)[C@H](O)C[C@H]2O[C@@H]12 [compound 1, xylo‐cyclophellitol]	> 100000 nM	> 10000	5.71 nM
–	O[C@@H]1[C@@H](O)[C@H](O)C[C@H]2N[C@@H]12 [compound 2, β‐D‐xylo‐Cyclophellitol aziridine]	48900 ± 12700 nM	1159	42.2 nM
